In patent publication US20260053811A1, “METHODS OF TREATING HYPERTENSION IN OBESE SUBJECTS” (Mineralys Therapeutics, Inc., priority 2022, published 2026):
Marks after values point to notes of the source that are not given here.

Tested on: hypertensive subjects
Assay: Seated automated office blood pressure (AOBP) in randomized, placebo-controlled, dose-ranging study
Assay type: in vivo, human
Parameters: Difference from placebo in change in blood pressure: unit not given here
Protocol: A randomized, double-blinded, placebo-controlled, dose-ranging, multicenter study was conducted to evaluate the effect of orally administered Compound A HBr on blood pressure for the treatment of hypertension in male and female subjects ≥18 years of age.
The study consists of two parts. For enrollment into Part 1 of the study, a subject's value of plasma renin activity (PRA) must be ≤1 ng/mL/h based on morning measurement. If the value of PRA >1 ng/mL/h based on morning measurement, then subjects may be eligible to enter Part 2 of the study.
For Part 1, 163 enrolled subjects ≥18 years of age were randomized into 6 equal treatment groups (1:1:1:1:1:1) to 12.5 mg BID, 25 mg BID, 12.5 mg QD, 50 mg QD, 100 mg QD, or placebo. After a review of interim clinical data, the 2 lowest dose levels (12.5 mg QD and 12.5 mg BID) were stopped for future randomization due to a lack of consistent meaningful reduction of blood pressure, but the patients randomized to that point remained in the study through completion. Thus, after the review of interim clinical data, subjects were randomized into 4 equal treatment groups (1:1:1:1) to 25 mg BID, 50 mg QD, 100 mg QD, or placebo.
For Part 2, 36 enrolled subjects ≥18 years of age were randomized (5:1) to either 100 mg QD Compound A HBr or placebo such that the Compound A HBr treatment group consisted of approximately 30 subjects and the placebo treatment group will consist of approximately 6 subjects.
Subjects orally administered the assigned study drug (Compound A HBr or placebo) according to the assigned dosing regimen for 8 weeks beginning on Study Day 1. All subjects in Part 1 (regardless of dosing group) received BID dosing to preserve the integrity of the blind; active drug is administered as the morning dose for all QD dose groups. Subjects returned to the research facility or were seen by the clinical investigator or approved home health care professional at the end of Study Weeks 1, 2, 3, 4, 5, 6, 7, and 8 (±2 days) for protocol-defined efficacy and safety assessments and procedures, assessment of adverse events (AEs), and confirmation of compliance with study drug usage. Subjects also completed a telephone visit and blood pressure (BP) check at home approximately 3 days post last dose of study drug. Subjects attended up to 14 full clinic visits, including a pre-Screening visit, a Screening/start of Placebo Run-in visit, a second visit during Placebo Run-in, a clinic visit to initiate the ABPM procedure, a Randomization visit, 8 weekly visits during double-blind treatment, and an end-of-study visit scheduled 4 weeks after the last study treatment for final efficacy and safety assessments.
An automated oscillometric sphygmomanometer device was used to measure the subjects' systolic and diastolic blood pressure in office after approximately 5 minutes of rest in the seated position.
The primary endpoint is the change in office-measured (mean of last 2 of 5 unattended measurements using an automated oscillometric sphygmomanometer device after approximately 5 minutes of rest in the seated position) systolic blood pressure (SBP) from baseline to the end of Study Week 8.
Secondary endpoints of this study were: • (a) Change in 24-hour ambulatory blood pressure monitoring (ABPM) parameters (systolic and diastolic) from baseline to the end of Study Week 7. • (b) Change in office-measured SBP from baseline to the end of Study Weeks 1, 2, 3, 4, 5, 6, and 7. • (c) Change in office-measured diastolic blood pressure (DBP) from baseline to the end of Study Weeks 1, 2, 3, 4, 5, 6, 7, and 8. • (d) Proportion of subjects who achieve office-measured BP of ≤130/80 mm Hg by the end of Study Week 8.

Q: Which results are given for `CC(=O)N[C@H]1CC[C@H](NC(=O)CN2CCN(c3nncc(-c4ccc(C)cc4)n3)CC2)CC1` [Compound A HBr]?
A: Difference from placebo in change in blood pressure (25 mg BID, Thiazide Yes): −8.3; Seated AOBP DBP change from baseline (CFB), Mean (SD) (25 mg BID, Week 1, Part 1, FAS): −2.22 (5.68) mmHg; Seated AOBP DBP, Mean (SD) (25 mg BID, Week 1, Part 1, FAS): 76.70 (9.28) mmHg; Seated AOBP SBP change from baseline (CFB), Mean (SD) (25 mg BID, Week 1, Part 1, FAS): −6.57 (10.78) mmHg; Seated AOBP SBP, Mean (SD) (25 mg BID, Week 1, Part 1, FAS): 134.37 (14.17) mmHg; Seated AOBP DBP change from baseline (CFB), Mean (SD) (25 mg BID, Week 2, Part 1, FAS): −2.42 (8.03) mmHg; Seated AOBP DBP, Mean (SD) (25 mg BID, Week 2, Part 1, FAS): 76.50 (10.74) mmHg; Seated AOBP SBP change from baseline (CFB), Mean (SD) (25 mg BID, Week 2, Part 1, FAS): −6.37 (13.43) mmHg; Seated AOBP SBP, Mean (SD) (25 mg BID, Week 2, Part 1, FAS): 134.57 (17.75) mmHg; Seated AOBP DBP change from baseline (CFB), Mean (SD) (25 mg BID, Week 3, Part 1, FAS): −0.55 (14.99) mmHg; Seated AOBP DBP, Mean (SD) (25 mg BID, Week 3, Part 1, FAS): 78.72 (15.35) mmHg; Seated AOBP SBP change from baseline (CFB), Mean (SD) (25 mg BID, Week 3, Part 1, FAS): −5.34 (18.35) mmHg; Seated AOBP SBP, Mean (SD) (25 mg BID, Week 3, Part 1, FAS): 136.34 (19.78) mmHg; LSM Δ with Placebo, seated AOBP DBP (MMRM) (25 mg BID, Week 4, Part 1, FAS): −5.94 mmHg; Modelled (MMRM) LSM (SEM) change from baseline, seated AOBP DBP (25 mg BID, Week 4, Part 1, FAS): −6.47 (1.41) mmHg; Seated AOBP DBP change from baseline (CFB), Mean (SD) (25 mg BID, Week 4, Part 1, FAS): −5.80 (7.01) mmHg; Seated AOBP DBP, Mean (SD) (25 mg BID, Week 4, Part 1, FAS): 73.26 (7.79) mmHg; Seated AOBP SBP change from baseline (CFB), Mean (SD) (25 mg BID, Week 4, Part 1, FAS): −9.63 (12.34) mmHg; Seated AOBP SBP, Mean (SD) (25 mg BID, Week 4, Part 1, FAS): 131.85 (13.59) mmHg; Seated AOBP DBP change from baseline (CFB), Mean (SD) (25 mg BID, Week 5, Part 1, FAS): −2.82 (8.82) mmHg; Seated AOBP DBP, Mean (SD) (25 mg BID, Week 5, Part 1, FAS): 76.29 (9.91) mmHg; Seated AOBP SBP change from baseline (CFB), Mean (SD) (25 mg BID, Week 5, Part 1, FAS): −9.16 (15.72) mmHg; Seated AOBP SBP, Mean (SD) (25 mg BID, Week 5, Part 1, FAS): 132.25 (16.30) mmHg; Seated AOBP DBP change from baseline (CFB), Mean (SD) (25 mg BID, Week 6, Part 1, FAS): −3.07 (8.82) mmHg; Seated AOBP DBP, Mean (SD) (25 mg BID, Week 6, Part 1, FAS): 76.04 (10.57) mmHg; Seated AOBP SBP change from baseline (CFB), Mean (SD) (25 mg BID, Week 6, Part 1, FAS): −7.09 (11.66) mmHg; Seated AOBP SBP, Mean (SD) (25 mg BID, Week 6, Part 1, FAS): 134.32 (13.96) mmHg; Seated AOBP DBP change from baseline (CFB), Mean (SD) (25 mg BID, Week 7, Part 1, FAS): −4.87 (8.84) mmHg; Seated AOBP DBP, Mean (SD) (25 mg BID, Week 7, Part 1, FAS): 73.89 (10.76) mmHg; Seated AOBP SBP change from baseline (CFB), Mean (SD) (25 mg BID, Week 7, Part 1, FAS): −11.00 (13.60) mmHg; Seated AOBP SBP, Mean (SD) (25 mg BID, Week 7, Part 1, FAS): 130.74 (15.42) mmHg; LSM Δ from Placebo, change from baseline in seated AOBP SBP (MMRM) (25 mg BID, Week 8, Part 1, FAS): −6.97 mmHg; LSM Δ with Placebo, seated AOBP DBP (MMRM) (25 mg BID, Week 8, Part 1, FAS): −2.49 mmHg; Modelled (MMRM) LSM (SEM) change from baseline, seated AOBP DBP (25 mg BID, Week 8, Part 1, FAS): −4.12 (1.68) mmHg; Modelled (MMRM) LSM (SEM) change from baseline, seated AOBP SBP (25 mg BID, Week 8, Part 1, FAS): −11.07 (2.65) mmHg; Seated AOBP DBP change from baseline (CFB), Mean (SD) (25 mg BID, Week 8, Part 1, FAS): −3.68 (11.71) mmHg; Seated AOBP DBP, Mean (SD) (25 mg BID, Week 8, Part 1, FAS): 75.43 (13.06) mmHg; Seated AOBP SBP change from baseline (CFB), Mean (SD) (25 mg BID, Week 8, Part 1, FAS): −10.13 (14.02) mmHg; Seated AOBP SBP, Mean (SD) (25 mg BID, Week 8, Part 1, FAS): 131.29 (16.59) mmHg; Subjects with seated AOBP SBP/DBP ≤130/80 mmHg: No (25 mg BID, Week 8, Part 1, FAS): 17 (56.7) n (%); Subjects with seated AOBP SBP/DBP ≤130/80 mmHg: Yes (25 mg BID, Week 8, Part 1, FAS): 13 (43.3) n (%); Difference from placebo in change in blood pressure (50 mg QD, BMI 25-30): 2.0; Difference from placebo in change in blood pressure (50 mg QD, BMI >30): −16.6*; Mean placebo-adjusted reduction in AOBP SBP (50 mg QD, Part 1, Week 8): 9.58 mmHg; Placebo-adjusted reduction in AOBP DBP, thiazide diuretic use at baseline (50 mg QD, Part 1, Week 8): −7.7 mmHg; Placebo-adjusted reduction in AOBP SBP from baseline, by baseline AOBP SBP tertile (50 mg QD, Part 1, Week 8): −19.9 mmHg
